# Results as given in patent US10564164B2, “Fluorescent probe, singlet oxygen detection agent, and singlet oxygen detection method” (Osaka University, priority 2014, dated 2020).
# Like-named read-outs stand apart in the source and are kept apart here.
# Key:
# [1] = cited from earlier work
# [2] = Time-resolved phosphorimetry (singlet oxygen generation quantum yield); format: physicochemical; details: 250 μM in DMSO and methanol (1:9); 532 nm excitation
# Experimental: A sample of Rose Bengal and the Si-Me of Comparative Example 1 was prepared in a DMSO and methanol (1:9) solution placed in a 1×1×4 cm^3 quartz cell (the concentration of Rose Bengal=21.5 μM, and the concentration of Si-Me=250 μM).
# Second harmonic oscillation (532 nm, 4 nsfwhm, 5.0 mJ·cm^−2 pulse^−1) generated by a Q-switched Nd YAG laser (Surelite II-10, Continuum) was used as an excitation light. The light-induced luminescence of the sample cell was condensed on a quartz lens via a monochromator, and subsequently introduced into a near-infrared photomultiplier tube module (H10330A-75; Hamamatsu Photonics K.K.).
# After the amplification using a 350-MHz amplifier unit (SR445A; Stanford Research Systems), the output of the photomultiplier tube was sent to a gated photon counter (SR400; Stanford Research Systems) under direct PC control via a GPIB interface. In order to measure the lifetime of ^1O2, measurement was performed by changing the delay time between 0 to 50 μseconds at a gate width of 1.0 μsecond, and accumulating the results (repeated 5 times).
# HeLa cells = experiment: Selectivity of photosensitizer: intracellular singlet oxygen detection with Si-DMA; format: cell-based; details: HeLa cells, Si-DMA probe; 60-second light irradiation; photosensitizer as labelled
# Experimental: Subsequently, a quick protocol provided by Molecular Probe® for introducing CellROX Green was followed. Using diluted Si-DMA and Si-Me, incubation was performed for 30 minutes to two hours by an experiment. To introduce a photosensitizer, 150 μg/mL of 5-aminolevulinic acid (5-ALA) or 10 LM TMPyP4 were incubated for four hours and 24 hours, respectively. As a result, as previously reported, the conversion of 5-ALA into protoporphyrin IX (PpIX) in the mitochondria was confirmed by the fluorescence luminescence of PpIX.
# A KillerRed vector was expressed in accordance with a general Lipofectamine® 2000 (Invitrogen) protocol. More specifically, 2×10^5 Hela cells were subcultured in a 35-mm glass bottom dish. The cells reached about 50% confluent in the next day.
# Subsequently, a mixed solution of Lipofectamine reagent and DNA vector was obtained by mixing 6 μL Lipofectamine® 2000 with 7 μL pKillerRed-dMitovector ([…], Evrogen, catalog No. FP964) in an Opti-MEM solution (Gibco). Thereafter, the resulting solution was incubated for 20 minutes at room temperature. 300 μL of the mixed solution was added to a growth medium, and incubated for 24 hours. The expression of KillerRed was confirmed by monitoring KillerRed fluorescence using a wide-view microscope. […]
# Further, on the night before the treatment, 0.2×10^6 HeLa cells were seeded on a 35-mm dish, and pKillerRed-dMito vector (Evrogen) was introduced using Lipofectaimine®2000 (Invitrogen®), followed by 24-hour incubation as described above, thereby preparing HeLa cells containing […]. […] Light irradiation was performed for 30 seconds simultaneously at 0.5 W/cm^2 and 0.6 W/cm^2 using a 640-/532-nm laser (Coherent) and a wide-view fluorescence microscope system mounted in an IX81 inverted microscope (Olympus Corporation). […]
# Further, in this Experiment Example, 60-second light irradiation was performed using three kinds of photosensitizers, and an average number of pseudo colors appeared in the photo and an increase thereof were measured. […]
structure (smiles),measurement,setting,value
"O=C1OC2(c3cc(Cl)c(O)cc3Oc3cc(O)c(Cl)cc32)c2ccccc21 [2,7-dichlorofluorescein]",ΦΔ (singlet oxygen generation quantum yield),[1]; comparison value for SOSG chromophore,0.06
O=C([O-])c1c(Cl)c(Cl)c(Cl)c(Cl)c1-c1c2cc(I)c(=O)c(I)c-2oc2c(I)c([O-])c(I)cc12.[Na+].[Na+] [Rose Bengal],ΦΔ (singlet oxygen generation quantum yield),"[1]; in methanol, reference value",0.76
Cc1ccccc1C1=C2C=CC(=[N+](C)C)C=C2[Si](C)(C)c2cc(N(C)C)ccc21 [Si-Me],ΦΔ (singlet oxygen generation quantum yield),[2],about 0.02
"C[n+]1ccc(-c2c3nc(c(-c4cc[n+](C)cc4)c4ccc([nH]4)c(-c4cc[n+](C)cc4)c4nc(c(-c5cc[n+](C)cc5)c5ccc2[nH]5)C=C4)C=C3)cc1 [TMPyP4, tetra-(N-methyl-4-pyridyl)porphyrin, reference compound]",average number of pseudo colors during light irradiation (Si-DMA fluorescence),HeLa cells,decreased
